The text below walks through data of publication PMC10034449, “FDA-approved Abl/EGFR/PDGFR kinase inhibitors show potent efficacy against pandemic and seasonal influenza A virus infections of human lung explants” (iScience, 2023).

Values joined by “and” are separate entries in the source; they are usually repeats but may differ in a detail not shown here. Equal values may be shown once. A value given as a limit tells only on which side of the number the result lay.

The subject of series [1] is A/Netherlands/602/09 (H1N1) replication complex (PB2, PB1, PA, NP). Format: cell-based, influenza A virus.
In series [2] the test system is NL11 viral polymerase activity. It is filed as cell-based, influenza A virus.
Series [3] concerns NL09 or NL11. Format: cell-based, influenza A virus.
In series [4] the test system is NL09 or NL11. Format: cell-based, influenza A virus. This is another data set of the same source.
The subject of series [5] is NL09 viral polymerase activity. It is filed as cell-based, influenza A virus.
For series [6], the system named is human precision-cut lung slices (hPCLS). The series can be described thus: Ex vivo cytotoxicity in hPCLS (LDH-Glo, LDH release). The settings on record: 10xmax: DF 50 μM, BO 50 μM, SA 1.25 μM, up to 144 h. (Release of lactate dehydrogenase indicates damage to the cell membrane.)
Series [7] concerns NFkBpS536 (NFkB p65). It is filed as cell-based, human.
Series [8] has as its system PDGFRα vs PDGFRβ. Further details: method as in PMID 19922818. The settings on record: cited from earlier work.
Series [9] has as its system A/NL/213/03 (H3N2) replication complex (PB2, PB1, PA, NP). It is filed as cell-based, influenza A virus.
For series [10], the system named is PAK3. The settings on record: 0.48 μM; cited from earlier work.

For the compound `CC#CC(=O)N1CCC[C@H]1c1nc(-c2ccc(C(=O)Nc3ccccn3)cc2)c2c(N)nccn12` [AC, Acalabrutinib], the results for the “% Luminescence (relative to untreated / normalized to GFP)” value in series [1] and in series [2] were 82% and 67%, respectively. For the same compound, in [3], the “effect on viral entry / virion localization” value is recorded as “No significant changes were detectable”. The “significance of titer reduction over the infection” value (from here on “significance of titer reduction”) in series [4] was “only significant at 24 and 48 hpi”.
On to `COc1cc(Nc2c(C#N)cnc3cc(OCCCN4CCN(C)CC4)c(OC)cc23)c(Cl)cc1Cl` [BO, Bosutinib], for which, in series [3], the “F-actin network” value is “not detectable” and the “effect on viral entry / virion localization” value was “no virus was detected”. For the same compound, in series [4], the “significance of titer reduction” value was “significant throughout the infections”.
Take `CNC(=O)c1ccc(Nc2ncc(C(F)(F)F)c(NCc3nccnc3N(C)S(C)(=O)=O)n2)cc1` [DF, Defactinib]: the “reduction of polymerase reporter activity” value in series [5] was 20%; in series [2], 13%. The “cytotoxicity (LDH release) relative to positive control” value in [6] was above 20%. In addition, the “NFkB p65 phosphorylation, pNFkB p65 / panNFkB p65 ratio (rel. to untreated)” value in [7] is 64% and 68%. In addition, the “effect on viral entry / virion localization” value in series [3] was “significant retention at the membrane and cell periphery”. The “significance of titer reduction” value in [4] is “only significant at 24 and 48 hpi”. Besides, the viral titer reduction result in [4] is reported as “at least 10 fold”.
With `C=CC(=O)N1CCC[C@@H](n2nc(-c3ccc(Oc4ccccc4)cc3)c3c(N)ncnc32)C1` [IB, Ibrutinib], the “effect on viral entry / virion localization” value in series [3] was “significant retention at the membrane and cell periphery”. In [4], the “significance of titer reduction” value is “significant throughout the infections” and the viral titer reduction entry is on record as “more than 1,000 fold”.
As to `Cc1cn(-c2cc(NC(=O)c3ccc(C)c(Nc4nccc(-c5cccnc5)n4)c3)cc(C(F)(F)F)c2)cn1` [NI, Nilotinib], the “% Luminescence (relative to untreated / normalized to GFP)” value was 50% in series [5]; 73% and 61% in series [1]; 62% and 45% in series [2]; 71% and 64% in [9]. For the same compound, the “selectivity for PDGFRα than PDGFRβ” value in series [8] is above 25 fold. Further, the “effect on viral entry / virion localization” value in series [3] is recorded as “No significant changes were detectable”. Further, the “significance of titer reduction” value in series [4] is reported as “significant throughout the infections”. In addition, the viral titer reduction entry in [4] is “more than 1,000 fold”.
As for `CN1CCN(CCOc2cc(OC3CCOCC3)c3c(Nc4c(Cl)ccc5c4OCO5)ncnc3c2)CC1` [SA, Saracatinib], the results for the “% Luminescence (relative to untreated / normalized to GFP)” value in series [1], in series [2] and in series [9] were 68%, 53% and 66%, respectively. The “cytotoxicity (LDH release) relative to positive control” value in [6] is reported as above 20%. The “effect on viral entry / virion localization” value in series [3] is on record as “No significant changes were detectable”.
As for `CCN(CC)CCNC(=O)c1c(C)[nH]c(/C=C2\C(=O)Nc3ccc(F)cc32)c1C` [sunitinib], the “effect on PAK3 activity” value in [10] is given as “not even a 30-fold higher concentration (0.48 μM) has an effect”.
poly(IC): the “induction of NFkBpS536” value in [7] is “induced NFkBpS536”.
